Measured values from the supplement of paper PMC10307832.

Columns and labels:
Experiment in all cases: relative viability (nuclei count vs DMSO), 5 days (fraction); higher = more cells survive
[1] = compound: COc1cc2c(Oc3ccc4[nH]c(C)cc4c3F)ncnc2cc1OCCCN1CCCC1 [Cediranib] + COc1cc2c(Oc3ccc(NC(=O)C4(C(=O)Nc5ccc(F)cc5)CC4)cc3F)ccnc2cc1OCCCN1CCOCC1 [Foretinib] (partner 0.25 µM)
Method in brief: (§1)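 Cells from lung cancer lines were seeded into 1536-well plates and, one day later, dosed by pin tool. Treatments were either a single drug or a fixed dose of an anchor drug with five library-drug doses (not always all listed) in √10 steps. After 5 days, nuclei were stained in a one-step fixation (final 0.05% Triton X-100, 1% formaldehyde, 1 ug/ml Hoechst) and counted on 4× images, and relative viability is the treated-to-vehicle nuclei ratio, as the median of duplicate plates.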

[2] = compound: O=C(C[C@H]1NCCC[C@@H]1O)Cn1cnc2cc(Br)c(Cl)cc2c1=O (racemic) [Halofuginone] + CC(=O)Nc1cccc(-n2c(=O)n(C3CC3)c(=O)c3c(Nc4ccc(I)cc4F)n(C)c(=O)c(C)c32)c1 [Trametinib] (partner 0.02 µM)
Method in brief: as §1

[3] = compound: O=C(C[C@H]1NCCC[C@@H]1O)Cn1cnc2cc(Br)c(Cl)cc2c1=O (racemic) [Halofuginone] + CS(=O)(=O)CCNCc1ccc(-c2ccc3ncnc(Nc4ccc(OCc5cccc(F)c5)c(Cl)c4)c3c2)o1 [Lapatinib] (partner 2 µM)
Method in brief: as §1

[4] = compound: O=C(C[C@H]1NCCC[C@@H]1O)Cn1cnc2cc(Br)c(Cl)cc2c1=O (racemic) [Halofuginone] + CCNC(=O)c1noc(-c2cc(C(C)C)c(O)cc2O)c1-c1ccc(CN2CCOCC2)cc1 [Luminespib] (partner 0.01 µM)
Method in brief: as §1

Cell Line	relative viability ([1]; first compound 0.04 µM)	relative viability ([1]; first compound 0.1265 µM)	relative viability ([1]; first compound 0.4 µM)	relative viability ([1]; first compound 1.265 µM)	relative viability ([1]; first compound 4 µM)	relative viability ([2]; first compound 0.001 µM)	relative viability ([2]; first compound 0.003162 µM)	relative viability ([2]; first compound 0.01 µM)	relative viability ([2]; first compound 0.03162 µM)	relative viability ([2]; first compound 0.1 µM)	relative viability ([3]; first compound 0.001 µM)	relative viability ([3]; first compound 0.003162 µM)	relative viability ([3]; first compound 0.01 µM)	relative viability ([3]; first compound 0.03162 µM)	relative viability ([3]; first compound 0.1 µM)	relative viability ([4]; first compound 0.001 µM)	relative viability ([4]; first compound 0.003162 µM)	relative viability ([4]; first compound 0.01 µM)	relative viability ([4]; first compound 0.03162 µM)	relative viability ([4]; first compound 0.1 µM)
HCC-366	0.935	0.902	0.772	0.94	1.01	0.395	0.404	0.338	0.322	0.166	1.05	1.17	0.979	1.08	0.542	–	–	–	–	–
HCC-827	1.2	–	0.986	1.05	1.03	0.591	0.524	0.515	0.575	0.433	0.192	0.189	0.236	0.233	0.202	0.453	0.473	0.478	0.705	0.504
HOP-62	1.3	1.15	1.1	1.15	1.22	0.419	0.407	0.383	0.411	0.235	0.983	1.09	0.936	0.791	0.948	0.817	0.96	0.902	0.921	0.818
IA-LM	1.16	1.32	1.07	1.26	1.33	–	–	–	–	–	0.85	0.781	0.579	0.518	0.0907	–	–	–	–	–
LC-2-ad	1.12	0.581	0.883	1.04	0.891	0.897	0.988	0.936	0.917	0.701	0.98	1.02	0.93	0.874	0.726	1.08	1	0.848	1.01	0.326
LCLC-97TM1	0.969	0.919	0.946	0.921	0.967	0.241	0.192	0.187	0.185	0.173	0.72	0.881	1.02	0.754	0.825	0.741	0.801	0.905	0.791	0.854
LCLC-103H	0.819	0.964	0.686	0.823	0.832	0.659	0.682	0.666	0.661	0.658	–	–	–	–	–	0.948	1.1	0.968	0.989	0.805
LK-2	1.43	0.875	1.23	1.19	1.01	0.853	0.775	0.592	0.823	0.519	1.01	0.801	0.951	0.891	0.778	0.152	0.147	0.181	0.205	0.179
LOU-NH91	0.903	1.12	0.859	0.961	0.829	0.819	0.817	0.724	0.778	0.697	0.77	0.746	0.747	0.738	0.676	0.332	0.361	0.354	0.346	0.339
